For orientation: IC50 means the concentration at which inhibition is half-maximal.

Experimental findings from patent US9656953B2, “Inhibition of cell proliferation” (University of South Florida, priority 2005, dated 2017) are described below.

The test system of one experiment is A549 tumors. The experiment can be described thus: A549 xenograft in nude mice. The following applies: for tumor size, A549 xenograft: vehicle 1039±128 mm^3. Format: in vivo. As for the experimental part:
Animal Studies. Nude mice (Charles River, Wilminton, Mass., USA) were maintained in accordance with Institutional Animal Care and Use Committee (IAUCUC) procedures and guidelines. A549 cells were harvested and resuspended in PBS, and then injected s.c. into the right and left flanks (10×10^6 cells per flank) of 8-week old female nude mice as reported previously (Sun 99). When tumors reached about 100-200 mm^3, animals were dosed intraperitoneally i.p. or orally by gavage with 0.1 mL solution once daily. […] The tumor volumes were determined by measuring the length (l) and the width (w) and calculating the volume (V=lw^2/2) as described previously (Sun 99). Statistical significance between control and treated animals were evaluated using Student's t-test.

A further experiment deals with T1, Rb:Raf-1 binding (Homo sapiens, UniProt P04049+P06400).
T1 construct: a glutathione S-transferase (GST) Raf-1 (1-149aa) overnight at 4° C; made in house
T1 sequence (P04049 1-149 limits assumed): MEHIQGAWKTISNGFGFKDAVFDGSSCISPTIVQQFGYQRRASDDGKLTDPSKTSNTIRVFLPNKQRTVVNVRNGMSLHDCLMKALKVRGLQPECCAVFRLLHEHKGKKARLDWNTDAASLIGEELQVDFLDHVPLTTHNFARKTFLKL
T1 sequence (P06400 whole entry): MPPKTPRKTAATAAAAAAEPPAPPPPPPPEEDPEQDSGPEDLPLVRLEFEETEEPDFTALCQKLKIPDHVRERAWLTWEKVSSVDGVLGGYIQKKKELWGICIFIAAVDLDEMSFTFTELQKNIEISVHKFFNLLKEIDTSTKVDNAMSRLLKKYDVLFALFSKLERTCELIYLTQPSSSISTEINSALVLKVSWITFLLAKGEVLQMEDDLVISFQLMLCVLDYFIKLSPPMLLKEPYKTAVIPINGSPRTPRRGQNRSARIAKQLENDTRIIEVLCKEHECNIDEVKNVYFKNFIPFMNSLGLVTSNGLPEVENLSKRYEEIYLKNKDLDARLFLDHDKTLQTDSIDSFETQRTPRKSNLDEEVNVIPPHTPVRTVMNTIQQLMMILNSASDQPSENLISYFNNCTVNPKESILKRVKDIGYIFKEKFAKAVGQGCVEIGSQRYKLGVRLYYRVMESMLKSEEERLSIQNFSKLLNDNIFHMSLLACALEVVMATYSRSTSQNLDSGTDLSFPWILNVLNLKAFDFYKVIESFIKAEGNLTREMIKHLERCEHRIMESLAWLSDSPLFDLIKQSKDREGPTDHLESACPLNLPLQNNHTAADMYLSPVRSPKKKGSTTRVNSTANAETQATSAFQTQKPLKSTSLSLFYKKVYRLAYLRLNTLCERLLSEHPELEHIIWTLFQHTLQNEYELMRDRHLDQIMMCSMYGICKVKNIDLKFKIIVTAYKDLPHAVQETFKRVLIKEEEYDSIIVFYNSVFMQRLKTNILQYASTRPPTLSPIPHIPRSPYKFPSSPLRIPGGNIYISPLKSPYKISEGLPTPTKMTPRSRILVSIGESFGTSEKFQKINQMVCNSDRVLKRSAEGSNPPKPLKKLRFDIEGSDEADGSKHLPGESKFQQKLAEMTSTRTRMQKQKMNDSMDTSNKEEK
The experiment can be described thus: GST-Rb/GST-Raf-1 ELISA. The following applies: concentration that inhibits the Rb:Raf-1 binding by 50%, triplicate; read-out: IC50 (nM), inhibition of the Rb:Raf-1 binding. As for the experimental part: In vitro library screening assays. Enzyme Linked ImmunoSorbent Assay (ELISA) 96-well plates were coated with 1 μg/mL of a glutathione S-transferase (GST) Raf-1 (1-149aa) overnight at 4° C. Subsequently the plates were blocked and GST Rb at 20 μg/mL was rotated at room temperature (RT) for 30 minutes in the presence or absence of the compounds at 20 micromolar (μM). GST-Rb +/− compounds were then added to the plate and incubated for 90 minutes (min) at 37° C. The amount of Rb bound to Raf-1 was detected by Rb polyclonal antibody (Santa Cruz Biotechnology, Santa Cruz, Calif.) 1:1000 incubated for 60 min at 37° C. Donkey-anti-rabbit-IgG-HRP (1:10,000) was added to the plate and incubated at 37° C. for 60 minutes. The color was developed with orthophenylenediamine (Sigma, St. Louis, Mo.) and the reaction was terminated with 3 molar (M) H2SO4. Absorbance was read at 490 nanometers (nm). To determine disruption of Rb to E2F1, Phb, or HDAC1 the above protocol was used with the exception of coating GST Rb on the ELISA plate and adding the drugs in the presence or absence of GST E2F1, Phb, or HDAC1. […] Prohibitin monoclonal antibody was used at 1:1000 to detect the amount of Rb bound to Prohibitin. For disruption of MEK-Raf-1 binding ELISAs, Raf-1 1 microgram/milliliter (μg/mL) was coated on the plate and GST-MEK (20 μg/mL) was incubated +/− the compounds for 30 minutes at room temperature. Mek1 polyclonal antibody was used at 1:1000 to detect the binding of Raf-1 to Mek1. The IC50 concentrations for the Rb:Raf-1 inhibitors were determined by plotting with Origin 7.5 software (Origin, Northampton, Mass.).
A screen was developed to identify small molecule inhibitors of the Rb:Raf-1 interaction. A diversity set, comprising 1981 compounds (National Cancer Institute, Bethesda, Md.) was examined using a glutathione S-transferase-retinoblastoma/glutathione S-transferase-Raf-1 kinase Enzyme-Linked ImmunoSorbent Assay screen (GST-Rb/GST-Raf-1 ELISA).
In general terms: An ELISA detects its analyte on a solid surface through an enzyme-linked reagent.

Experiment [1] deals with Rb phosphorylation (serines 807 and 811). The experiment can be described thus: Western blot of Rb phosphorylation, A549 cells. Format: cell-based, human. The settings on record: cells treated 18 hours, western blotting. An excerpt: (§1) Lysate preparation, pmmunoprecipitation, and pestern plotting.
The test system of the next experiment is A375 melanoma cell line. The experiment in a line: BrdU incorporation, S-phase entry, A375. Type of experiment: cell-based. The following applies: V600E B-Raf. As for the experimental part:
(§2) Proliferation assays. Bromodeoxyuridine (BrdU) labeling kits were obtained from Roche Biochemicals (Indianapolis, Ind.). Cells were plated in poly-D-lysine coated chamber slides at a density of 10,000 cells per well and rendered quiescent by serum starvation for 24 hours. Cells were then re-stimulated with serum in the presence or absence of the indicated drugs for 18 h. S-phase cells were visualized by microscopy and quantitated by counting 3 fields of 100 in quadruplicate.
A V600E mutation in the B-Raf oncogene is associated with 66% of melanomas and leads to an over-activation of phospho-Erk signaling. The A375 melanoma cell line harbors the V600E B-Raf mutation. Using the methods of the preceding examples, 3a was inhibited 58% of S-phase entry in this cell line.

Another experiment has as its system U2-OS cells. The experiment can be described thus: BrdU incorporation, S-phase entry, U2-OS. The following applies: 20 μM, 18 hours, Rb wild type. Format: cell-based. As to the method:
as §2
Given the selectivity of 3a described in FIGS. 1 and 2 above for disrupting the Rb:Raf-1 interaction, it was examined if 3a can inhibit the proliferation of cells and whether such an inhibition required a functional Rb gene.
For orientation: Incorporation of labelled thymidine or its analogues reports DNA synthesis.

The test system of another experiment is SK-MEL-5 cells. The experiment can be described thus: Soft agar assay, SK-MEL-5. Type of experiment: cell-based. As for the experimental part:
Soft Agar Assay. Soft agar assays were done in triplicate in 12-well plates (Corning, Corning N.Y.). First, the bottom layer of agar (0.6%) was allowed to solidify at room temperature. Next the top layer of agar was (0.3%) was mixed with 5,000 cells per well and the indicated drug. The drugs were added twice weekly in complete media to the agar wells. Colonies were quantified by staining with MTT (3-(4,5-Dimethylthiazol-2-yl)-2,5-diphenyltetrazolium bromide) 1 mg/mL for 1 hour at 37° C.
Experiments were also carried out to examine the effect of 3a in inhibiting the adherence-independent growth of cancer cells in soft agar.

Experiment [2] deals with H1650 non-small cell lung cancer cell line. The experiment can be described thus: BrdU incorporation, S-phase entry, H1650. The following applies: EGFR mutant NSCLC. Type of experiment: cell-based. As to the method:
as §2
Because many cancers contain more than one mutation in tumor suppressor genes or oncogenes, we determined the ability of 3a to inhibit proliferation in cell lines containing alterations in key regulatory genes.

For another experiment, the system named is PC3 prostate cell line. The experiment can be described thus: BrdU proliferation assay, PC3. Type of experiment: cell-based. As for the experimental part:
as §2
Prostate cell lines LNCaP and PC3 both contain mutations in K-Ras and PTEN genes.

The target in experiment [3] is T2, binding of Rb to Raf-1 in A-549 cells (Homo sapiens, UniProt P04049+P06400).
T2 construct: endogenous in cells; host or cells: A549
T2 sequence (P06400 whole entry): as above
T2 sequence (P04049 whole entry): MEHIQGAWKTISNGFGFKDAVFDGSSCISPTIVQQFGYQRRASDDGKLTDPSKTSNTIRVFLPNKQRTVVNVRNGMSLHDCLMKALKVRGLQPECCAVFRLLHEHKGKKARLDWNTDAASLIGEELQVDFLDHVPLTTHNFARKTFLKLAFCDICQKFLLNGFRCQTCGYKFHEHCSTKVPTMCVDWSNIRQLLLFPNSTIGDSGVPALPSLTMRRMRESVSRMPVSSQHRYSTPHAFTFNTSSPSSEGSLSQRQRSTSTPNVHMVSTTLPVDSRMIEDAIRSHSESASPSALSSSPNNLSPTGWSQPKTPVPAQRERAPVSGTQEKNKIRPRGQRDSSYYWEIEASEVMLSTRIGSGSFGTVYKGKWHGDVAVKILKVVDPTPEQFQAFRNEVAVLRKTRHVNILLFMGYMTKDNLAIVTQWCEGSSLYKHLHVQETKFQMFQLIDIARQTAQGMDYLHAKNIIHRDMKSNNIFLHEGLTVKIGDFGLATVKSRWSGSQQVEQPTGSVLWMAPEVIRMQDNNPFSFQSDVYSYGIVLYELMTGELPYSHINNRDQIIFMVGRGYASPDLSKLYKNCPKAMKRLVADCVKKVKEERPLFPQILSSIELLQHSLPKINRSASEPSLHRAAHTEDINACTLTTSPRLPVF
The experiment in a line: IP-western, serum stimulated A-549 cells, Rb:Raf-1. Format: cell-based.
Source text: as §1

Entries after “also recorded” stand apart in the source; their conditions may differ.

With `Cl.N=C(N)SCc1ccc(Cl)cc1Cl` [Compound 3a], in the experiment on A549 tumors (50 mpk/day i.p. or 150 mpk/day oral), the “A549 tumor growth in words, 3a” value is “completely inhibit tumor growth; also recorded: did not grow”. For the same compound, the “tumor size, A549 xenograft” value with A549 tumors (50 mpk/day i.p.) is 144±20 mm^3; in the experiment with A549 tumors (150 mpk/day oral) it was 148±32 mm^3. Also, on Rb:Raf-1 binding, the concentration for half-maximal inhibition (IC50) was found to be 77 nM. Moreover, in experiment [1], the Rb phosphorylation entry was “reduced Rb phosphorylation significantly; also recorded: marked reduction in Rb phosphorylation”. Also, in the experiment on A375 melanoma cell line, the “inhibition of S-phase entry, A375” value stood at 58%. In the experiment with U2-OS cells, the “S-phase entry (BrdU), U2-OS” value was “inhibited S-phase entry”. Also, the “adherence-independent growth in soft agar, SK-MEL-5” value in the experiment with SK-MEL-5 cells was “significantly inhibited the growth”. In addition, in [2], the “inhibition of S-phase entry, H1650” value was 90%. Moreover, in the experiment on PC3 prostate cell line, the “inhibition of proliferation, PC3” value is recorded as 35%. Moreover, the “serum stimulated binding of Rb to Raf-1” value in experiment [3] is listed as “inhibited”.
